# Measured values published in patent US20240293367A1, “METHODS OF TREATING DISORDERS WITH A […]” (Cybin IRL Limited, priority 2023, published 2024).
# “And” between values parts separate entries of the source, which are not always exact repeats. Equal values may be shown once. Read-outs that look alike come from different tables or passages of the source.
# Test: Phase I/IIa clinical PK of oral psilocin-d10, plasma, noncompartmental analysis (Cohorts 1-6)
# Format: in vivo, human
# Settings: for AUC(0-inf): read-out: AUC0-inf Mean (SD)
# Procedure: Phase I/IIa, Randomized, Double-Blind, Placebo-Controlled Study which assesses the safety, tolerability, pharmacokinetics, and pharmacodynamics of multiple ascending oral doses of psilocin-d10 in participants with and without MDD (ClinicalTrials.gov Identifier: NCT05385783). All subjects receiving study medication in Cohorts 1-6 received oral psilocin-d10 powder in solution (0.1M citric acid+Tang orange drink, 30 mL dose in a dose cup) and subjects receiving placebo received a similar volume of Tang orange drink without the psilocin-d10 study drug. All subjects receiving study medication in the relative bioavailability (BA) cohort received powder-filled capsules containing psilocin-d10 benzenesulfonate salt by ingestion with approximately 240 mL room temperature water, or oral psilocin-d10 powder in solution (0.1M citric acid+Tang orange drink, 30 mL dose in a dose cup) in a cross-over design. Psilocin-d10 for the powder in solution dosage form was manufactured by Patheon Pharma Services, with an isotopic purity of 79.89%. Psilocin-d10 benzenesulfonate salt for the powder-filled capsule dosage form was manufactured by Patheon Pharma Services, with an isotopic purity of 85.20%.
# Cohorts 1, 4, 5, and 6 of the study was comprised of participants with MDD. Cohorts 2, 3, and the relative BA cohort of the study were comprised of normal healthy volunteers (NHV). […] MDD participants had been on a stable dose of antidepressant medication for at least one month prior to screening with an inadequate response to that antidepressant medication as judged by the Investigator, and continued to receive their prescribed antidepressant throughout the course of the study.
# Cohort 1. For Cohort 1, 2 sentinel subjects were randomized and dosed, including 1 subject who received a psilocin-d10 1 mg oral dose and 1 subject who received a placebo dose. After the sentinel subjects were dosed, an additional 2 subjects were dosed, including a replacement subject for one of the sentinel subjects who withdrew consent and one additional subject. In total, four Cohort 1 subjects received a first dose of study medication on Day 1, and 3 subjects received a second dose of study medication on Day 22. For the first dose, 2 subjects received an active psilocin-d10 1 mg dose and 2 subjects received placebo. For the second dose, 3 subjects received an active psilocin-d10 1 mg dose.
# Cohort 2. For Cohort 2, 4 subjects were randomized and dosed on Day 1 (2 subjects on one day, 2 subjects on the next day), including 3 subjects who received a psilocin-d10 3 mg oral dose and 1 subject who received a placebo dose. These same 4 subjects were again dosed on Day 8 (2 subjects on one day, 2 subjects on the next day), with all 4 subjects receiving a psilocin-d10 8 mg oral dose (note the actual washout was 11 days between doses).
# Cohort 3. For Cohort 3 Day 1, 4 subjects were randomized and dosed on Day 1 (2 subjects on one day, 2 subjects on the next day), including 3 subjects who received a psilocin-do 8 mg oral dose and 1 subject who received a placebo dose. […] Another subject was dosed and left the study after the 2-hour PK sampling and has limited PK samples available for analysis from 0 to 2 hours—this subject's PK data has thus been excluded from the analysis presented hereinafter. For Cohort 3 Day 8, 3 subjects were dosed on Day 8 with a psilocin-d10 10 mg dose (2 sentinel subjects were dosed on one day, 1 non-sentinel subject was dosed on the next day).
# Cohorts 4 and 5. For Cohorts 4 and 5, 12 participants each (24 participants total) were randomized in a 3:1 ratio to receive 12 mg of psilocin-d10 or matched placebo in a single dosing session on Day 1. Following a 21-day interval, all participants received a dose of 12 mg psilocin-d10 on Day 22 (second dose for participants originally randomized to psilocin-d10, first dose for participants randomized to placebo), and were followed to Day 42.
# Cohort 6. […]
smiles,measurement,setting,value
"[2H]C([2H])([2H])N(C([2H])([2H])[2H])C([2H])([2H])C([2H])([2H])c1c[nH]c2cccc(O)c12 [psilocin-d10, 3-(2-(bis(methyl-d3)amino)ethyl-1,1,2,2-d4)-1H-indol-4-ol]",CL/F Mean (SD),"1 mg oral, Cohort 1 MDD, Day 1 and Day 22 pooled",101.08 (18.94) L/h
same,CL/F Mean (SD),"3 mg oral, Cohort 2 NHV, Day 1",85.22 (11.21) L/h
same,Cmax Mean (SD),"8 mg oral, Cohorts 2 and 3 NHV, Day 1 and Day 8 pooled, 2 subjects excluded",15.00 (4.85) ng/ml and 15.00^3 ng/ml
same,CL/F Mean (SD),"8 mg oral, Cohorts 2 and 3 NHV, pooled",97.56 (31.21) L/h
same,AUC0-24 Mean (SD),"8 mg oral, Cohorts 2 and 3 NHV, pooled, 2 subjects excluded",83.98 (21.46) h*ng/mL and 83.98^3 h*ng/mL
same,CL/F Mean (SD),"10 mg oral, Cohort 3 NHV, Day 8",104.7 (40.25) L/h
same,CL/F Mean (SD),"12 mg oral, Cohort 4 MDD, Day 1 and Day 22",85.32 (35.41) L/h
same,CL/F Mean (SD),"12 mg oral, Cohort 5 MDD, Day 1 and Day 22",91.95 (25.38) L/h
same,CL/F Mean (SD),"12 mg oral, Cohorts 4 and 5 MDD, Day 1 and Day 22",88.72 (30.45) L/h
same,CL/F Mean (SD),"16 mg oral, Cohort 6 MDD, all subjects incl. 3 with emesis",128.11 (83.50) L/h
same,mean clearance (CL/F),"16 mg, 18 doses, no emesis",~107.2 L/h
same,Observed Mean Cmax,"16 mg, Cohort 6, N = 18, excluding 3 doses with vomiting postdose",20.73^2 ng/mL
same,"fold increase in mean Cmax, 16 mg (18 doses, no emesis) compared to 12 mg",1.33-fold increase in dose,~1.1 fold
same,"fold increase in mean AUC, 12 mg compared to 8 mg",1.5-fold increase in dose,1.7 to 1.8 fold
same,"fold increase in mean Cmax, 12 mg compared to 8 mg",1.5-fold increase in dose,~1.2 fold
same,"mean Cmax, fold higher, 8 mg dose compared to 3 mg dose",2.67-fold increase in dose,2.45 fold
same,"mean AUC0-24, AUClast and AUC0-inf, fold higher, 8 mg compared to 1 mg",8-fold increase in dose,8.1 to 8.3 fold
same,"mean Cmax, fold higher, 8 mg dose compared to 1 mg dose",8-fold increase in dose,8.6 fold
same,"fold increase in mean AUC, 16 mg (18 doses, no emesis) compared to 12 mg","human, plasma, oral",~1.1 fold
same,"mean AUC0-24, AUClast and AUC0-inf higher for 10 mg compared to 8 mg","human, plasma, oral",~20%
same,"mean AUC0-24, AUClast and AUC0-inf, fold higher, 3 mg compared to 1 mg","human, plasma, oral",3.4 to 3.5 fold
same,mean Cmax lower for 10 mg dose cohort compared to 8 mg dose cohort,"human, plasma, oral",~10%
same,"mean Cmax, fold higher, 3 mg dose compared to 1 mg dose","human, plasma, oral",3.5 fold
same,Cmax,"human, plasma, oral, 8 mg, Cohort 2, Day 8, N = 4, read-out: Observed Mean Cmax",16.6 ng/mL
same,half-life,"human, plasma, oral, 8 mg, range of means for 1, 3 and 8 mg doses, read-out: elimination half-life, on average",4.18 to 5.41 h
same,Vd/F,"human, plasma, oral, 16 mg, 18 doses, no emesis, read-out: mean volume of distribution (Vz/F)",~834 L
same,AUC(0-t),"human, plasma, oral, 16 mg, Cohort 6, N = 18, excluding 3 doses with vomiting postdose, read-out: Observed Mean AUC0-24",165 ng·h/mL
same,Cmax,"human, plasma, oral, 16 mg, Cohort 6, N = 18, excluding 3 doses with vomiting postdose, read-out: Observed Mean Cmax",20.7 ng/mL
same,half-life,"human, plasma, oral, 16 mg, as given in the text, read-out: mean elimination half-life (T1/2) (converted)",5.58 h
same,Vd/F,"human, plasma, oral, range of means, 1 to 10 mg doses, read-out: apparent volume of distribution (Vz/F), on average",584 to 761 L
same,concentration at 2 h,"human, plasma, oral, 10 mg, Cohort 3 Day 8, read-out: plasma psilocin-d10 concentration of one subject at 2 hours postdose",18.7 ng/mL
same,concentration at 4 h,"human, plasma, oral, 10 mg, Cohort 3 Day 8, set ~20% below the 2-hour value, read-out: estimated plasma psilocin-d10 concentration of one subject at 4 hours postdose (missed sample)",14.9 ng/mL
same,AUC(0-t),"human, plasma, po, 1 mg, 1 mg oral, Cohort 1 MDD, Day 1 and Day 22 pooled, read-out: AUC0-24 Mean (SD)",10 ng·h/mL
same,AUC(0-inf),"human, plasma, po, 1 mg, 1 mg oral, Cohort 1 MDD, Day 1 and Day 22 pooled",10.2 ng·h/mL
same,AUC(0-t),"human, plasma, po, 1 mg, 1 mg oral, Cohort 1 MDD, Day 1 and Day 22 pooled, read-out: AUClast Mean (SD)",10 ng·h/mL
same,Cmax,"human, plasma, po, 1 mg, 1 mg oral, Cohort 1 MDD, Day 1 and Day 22 pooled, read-out: Cmax Mean (SD)",1.69 ng/mL
same,Cmax,"human, plasma, po, 1 mg, 1 mg oral, Cohort 1 MDD, Day 1 and Day 22 pooled, read-out: Cmax Median",1.7 ng/mL
same,half-life,"human, plasma, po, 1 mg, 1 mg oral, Cohort 1 MDD, Day 1 and Day 22 pooled, read-out: T1/2 Mean (SD) (converted)",4.18 h
same,Vd/F,"human, plasma, po, 1 mg, 1 mg oral, Cohort 1 MDD, Day 1 and Day 22 pooled, read-out: Vz/F Mean (SD)",608 L
same,AUC(0-t),"human, plasma, po, 3 mg, 3 mg oral, Cohort 2 NHV, Day 1, read-out: AUC0-24 Mean (SD)",34.5 ng·h/mL
same,AUC(0-inf),"human, plasma, po, 3 mg, 3 mg oral, Cohort 2 NHV, Day 1",35.6 ng·h/mL
same,AUC(0-t),"human, plasma, po, 3 mg, 3 mg oral, Cohort 2 NHV, Day 1, read-out: AUClast Mean (SD)",34.5 ng·h/mL
same,Cmax,"human, plasma, po, 3 mg, 3 mg oral, Cohort 2 NHV, Day 1, read-out: Cmax Mean (SD)",5.91 ng/mL
same,Cmax,"human, plasma, po, 3 mg, 3 mg oral, Cohort 2 NHV, Day 1, read-out: Cmax Median",5.87 ng/mL
same,half-life,"human, plasma, po, 3 mg, 3 mg oral, Cohort 2 NHV, Day 1, read-out: T1/2 Mean (SD) (converted)",4.76 h
same,Vd/F,"human, plasma, po, 3 mg, 3 mg oral, Cohort 2 NHV, Day 1, read-out: Vz/F Mean (SD)",584 L
same,Cmax,"human, plasma, po, 8 mg, 8 mg oral, Cohorts 2 and 3 NHV, Day 1 and Day 8 pooled, 2 subjects excluded, read-out: Cmax Mean (SD)",15 ng/mL
